The numbers were not newly measured in patent US7001916B1, “Epothilon derivatives, method for the production and the use thereof as pharmaceuticals” (priority 1999, dated 2006), which cites them from elsewhere.

Structures are written as SMILES.

In the data set the test system is P-glycoprotein-forming multiresistant tumor lines. The following applies: in comparison to taxol.

Turning to `C/C(=C\c1csc(C)n1)[C@@H]1C[C@@H]2O[C@]2(C)CCC[C@H](C)[C@H](O)[C@@H](C)C(=O)C(C)(C)[C@@H](O)CC(=O)O1` [Epothilone B, epothilone B], the “activity against P-glycoprotein-forming multiresistant tumor lines” value is “significantly higher activity”.

Take `C/C(=C\c1csc(C)n1)[C@@H]1C[C@@H]2O[C@@H]2CCC[C@H](C)[C@H](O)[C@@H](C)C(=O)C(C)(C)[C@@H](O)CC(=O)O1` [Epothilone A, epothilone A]: the “activity against P-glycoprotein-forming multiresistant tumor lines” value is “significantly higher activity”.
